Data on three compounds can be found in ChEMBL document CHEMBL1782014, “20(R)-ginsenoside Rh2, not 20(S), is a selective osteoclastgenesis inhibitor without any cytotoxicity” (Bioorg Med Chem Lett, 2009).

Data set [1] in a line: Toxicity in RANKL and TNFalpha-pretreated mouse RAW264 cells assessed as inhibition of cell proliferation upto 100 uM incubated for 3 days by WST-1 assay. The conditions noted are these: raw264, 72 h.
Data set [2] is described as follows: Toxicity in RANKL and TNFalpha-pretreated mouse RAW264 cells assessed as effect on cell proliferation upto 50 uM incubated for 3 days by WST-1 assay. The conditions noted are these: raw264, 72 h. In general terms: Tetrazolium assays rely on reduction of a dye to a coloured formazan, in cell work by metabolically active cells.
The nature of data set [3]: Inhibition of RANKL and TNF-alpha-induced osteoclastogenesis in mouse RAW264 cells incubated for 3 days by TRAP staining based method. The conditions noted are these: RAW264.7, 72 h. Type of data set: functional, cell-based.
Data set [4] deals with Radical scavenging activity. The data set can be described thus: Antioxidant activity assessed as DPPH radical scavenging activity at 1.6 mM after 20 mins by UV spectrophotometry. In kind it is functional.
Data set [5] concerns Radical scavenging activity. Kind of data set: Antioxidant activity assessed as DPPH radical scavenging activity at 0.2 mM after 20 mins by UV spectrophotometry. Type of data set: functional. In general terms: The DPPH test is a chemical assay of radical scavenging.
A short description of data set [6]: Toxicity in RANKL and TNFalpha-pretreated mouse RAW264 cells assessed as inhibition of cell proliferation incubated for 3 days by WST-1 assay. The conditions noted are these: RAW264 cells pretreated with RANKL and TNFalpha.

In the case of `CC(C)=CCC[C@@](C)(O)[C@H]1CC[C@]2(C)[C@@H]1[C@H](O)C[C@@H]1[C@@]3(C)CC[C@H](O[C@@H]4O[C@H](CO)[C@@H](O)[C@H](O)[C@H]4O)C(C)(C)[C@@H]3CC[C@]12C`, the figures for the Activity result in data set [1], in data set [2] and in data set [4] were “Non-toxic”, “Non-toxic” and less than 10%, respectively. Also, in data set [3], the IC50 is 12 µM.

For `Cc1c(C)c2c(c(C)c1O)CC[C@@](C)(CCC[C@H](C)CCC[C@H](C)CCCC(C)C)O2`, in data set [5], the Activity came out at 96%.

Regarding `CC(C)=CCC[C@](C)(O)[C@H]1CC[C@]2(C)[C@@H]1[C@H](O)C[C@@H]1[C@@]3(C)CC[C@H](O[C@@H]4O[C@H](CO)[C@@H](O)[C@H](O)[C@H]4O)C(C)(C)[C@@H]3CC[C@]12C` [GINSENOSIDE RH2], the IC50 in data set [3] was determined as 32 µM. The IC50 at 3 days in data set [6] was 62 µM. Besides, the Activity in data set [4] was less than 10%.

A word on the IC50: it is the concentration that inhibits the measured activity by half.
